Data: patent US10391151B2, “Dilute surfactant or isolated surfactant protein solution for the reduction of surface tension in the lung” (The Trustees of the Stevens Institute of Technology, priority 2015, dated 2019)
Where no end group is shown, it is not given here. The star is where a group is joined. Biotin = O=C1N[C@H]2[C@H](CS[C@H]2CCCCC(=O)*)N1

Tests used:
[1] = tested on: heterogeneously flooded region of the isolated, perfused adult rat lung; assay: Ventilation injury score in the isolated, perfused adult rat lung (Method 2); conditions: for Injury score: flooding solution normal saline with 5% albumin, solutes at about the concentrations present in 1% SURVANTA solution, n=1 or 2/group (FIG. 2A)
From the text: Method 2. Ventilation ‘injury score’ in the adult rat lung. In the isolated, perfused adult rat lung, a surface alveolus is micropunctured and a non-fluorescent test solution is instilled. In experimental regions, a sufficiently large volume of liquid is instilled to generate a pattern of heterogeneous alveolar flooding; in control regions, a sufficiently small volume of liquid is instilled that the liquid spontaneously clears from the region, leaving behind a micropunctured-but-aerated region. Fluorescent dye, at a low concentration verified not to alter surface tension, is included in the perfusate. The region is imaged by confocal microscopy over a five minute baseline period at a constant transpulmonary pressure of 5 cm H2O. Five ventilation cycles are supplied to the lung, at 0.33 Hz with a positive end-expiratory pressure of 15 cm H2O and a tidal volume of 6 ml/kg body weight. The lung is then returned to a constant transpulmonary pressure of 5 cm H2O and imaged for 10 additional minutes. Alveolar liquid fluorescence at all time points is normalized by capillary fluorescence.
At baseline, alveolar liquid fluorescence (in flooded alveoli of experimental regions or in the liquid lining layer of control, aerated regions) is low and constant in all regions. Following ventilation, alveolar liquid fluorescence remains unchanged in aerated regions but continually increases with time in heterogeneously flooded regions. […] The increase above baseline in normalized alveolar liquid fluorescence at the last time point of the experiment is used as an injury score. The injury score, which indicates the rate of increase of normalized fluorescence following ventilation, correlates with surface tension of the test solution.
2. degree of ventilation induced injury in a region of the isolated, perfused adult rat lung in which surface alveoli have been flooded, in a heterogeneous fashion, with a test solution;

[2] = tested on: surface alveoli of the isolated adult rat lung; assay: Surface tension determination in alveoli of the isolated adult rat lung (Method 1)
Protocol: Method 1. Surface tension determination in the adult rat lung. […] In flooded alveoli, the air-liquid interface forms a meniscus, at which surface tension is determined as follows. Alveolar air pressure is determined with a transducer at the trachea of the constantly-inflated lung. Alveolar liquid phase pressure is determined by servo-nulling pressure measurement. Meniscus radius of curvature is determined by confocal microscopy. Surface tension is calculated according to the Lapalce relation.
1. direct surface tension determination in surface alveoli of the isolated adult rat lung, which contains native lung surfactant, following alveolar instillation of a test solution;

[3] = 10 μM NaOH alone, without dextran, in the absence or presence of SURVANTA

Row | Molecule | Injury score [1] | also measured
1 | CCCCCCCCCCCCCCCC(=O)OC[C@H](COP(=O)([O-])OCC[N+](C)(C)C)OC(=O)CCCCCCCCCCCCCCC [DPPC, dipalmitoylphosphatidylcholine, reference compound] | Only SP-C and sSP-C lower injury score | –
2 | fibrinogen | – | Facilitation of the surface activity of 1 vol % SURVANTA ([2]; 5 w/v % solute, adult rat lung, dextran negative charge imparted by 10 μM NaOH (FIGS. 1A and B)): facilitate
3 | sSP-Css-ion lock-B: a variant of sSP-Css-ion lock with a biotinylated N-terminal (Biotin-GIPSSPVHLKRLLIVVVVVELIVKVIVGALLMGL) | lower injury score | –
4 | [Na+].[OH-] [NaOH] | – | Effect on surface tension [2, 3]: no effect; Effect on lung injury [1, 3]: no effect
5 | SP-B: surfactant protein B isolated from pulmonary alveolar proteinosis patients (protein, UniProt P07988 201-279, looked up, Pulmonary surfactant-associated protein B, surfactant protein B isolated from pulmonary alveolar proteinosis patients) Pulmonary …: FPIPLPYCWLCRALIKRIQAMIPKGALAVAVAQVCRVVPLVAGGICQCLAERYSVILLDTLLGRMLPQLVCRLVLRCSM | Only SP-C and sSP-C lower injury score | –
